In patent US9439906B2, “Dosing regimen associated with long acting injectable paliperidone esters” (Janssen Pharmaceutica NV, priority 2007, dated 2016):

Legend:
[1] = tested on: subjects with schizophrenia; experiment: Efficacy in phase 3 placebo-controlled study R092670-PSY-3007 (PANSS, PSP, CGI-S); type: in vivo, human; conditions: for PANSS Total Score End point Mean (SD): LOCF; for PANSS Total Score Change from Baseline Mean (SD): end point LOCF, placebo −2.9; for mean improvement in the PSP score from baseline to end point: placebo 1.7; for subjects who achieved responder status (30% or larger decrease on PANSS total scores): placebo 20.0%
Excerpt: The study included a screening period of up to 7 days and a 13-week double-blind treatment period. The screening period included a washout of disallowed psychotropic medications. […] Subjects who had source documentation of previous exposure to the above medications and were currently taking another antipsychotic regimen continued their current treatment through Day-1. At the beginning of the double-blind treatment period, subjects were randomly assigned in a 1:1:1:1 ratio to 1 of 4 treatment groups: placebo or paliperidone palmitate 25 mg eq., 100 mg eq., or 150 mg eq. Study medication was administered as 4 doses: an initial i.m. injection of 150 mg eq. of paliperidone palmitate or placebo followed by 3 fixed i.m. doses of placebo or paliperidone palmitate [25, 100, or 150 mg eq.] on Days 8, 36, and 64. The initial injection of study medication was given in the deltoid muscle. Subsequent injections were given either in the deltoid or gluteal muscle at the discretion of the investigator. Randomized subjects were to remain in the study for 28 days after the last injection on Day 64 with the end of study visit scheduled for Day 92 during the double-blind period. The entire study, including the screening period, lasted approximately 14 weeks. Samples for pharmacokinetic (PK) evaluation were collected on Day 1, prior to the first injection and on Days 2, 4, 6, 8, 15, 22, 36, 64 and 92. Efficacy and safety were evaluated regularly throughout the study. A pharmacogenomic blood sample (10 mL) was collected from subjects who gave separate written informed consent for this part of the study. Participation in the pharmacogenomic research was optional. Approximately 105 to 115 mL of whole blood was collected during the study. The primary endpoint was the change in the PANSS total score from baseline (i.e., the start of double-blind treatment, Day 1) to the end of the double-blind treatment period (i.e., Day 92 or the last post baseline assessment). The key secondary efficacy endpoint was the change in the Personal and Social Performance Scale (PSP) from baseline to the end of the double-blind treatment period. The other secondary efficacy endpoint was the change in the Clinical Global Impression-Severity (CGI-S) scores from baseline to the end of the double-blind treatment period. Other endpoints included the change from baseline in subject ratings of sleep quality and daytime drowsiness using a visual analogue scale (VAS), the onset of therapeutic effect, responder rate, and the change from baseline to end point in PANSS subscales and […] factors. All randomized subjects who received at least 1 dose of double-blind study drug and had both baseline and at least one post baseline efficacy measurement (PANSS, PSP, or CGI-S) during the double-blind treatment period were included in the intent-to-treat efficacy analyses. […] This procedure is referred to as the Dunnett-Bonferroni-based parallel gatekeeping procedure. The change from baseline in PANSS total score at each visit and at end point was analyzed using an analysis of covariance (ANCOVA) model. The last observation carried forward (LOCF) method was used. The model included treatment and country as factors and baseline PANSS total score as a covariate. Treatment effect was based on the difference in least-squares mean change. […] Treatment-by-country and treatment-by-baseline PANSS total score interactions were explored using the same ANCOVA model as the one for the analysis of the primary endpoint. If either term was statistically significant at the predefined 2-sided significance level of 0.10, further evaluations of the effect of other covariates were to be performed to assess the nature of the interaction and identify possible causes. […] The analysis of the key secondary endpoint, change in PSP score at end point, was conducted by means of an ANCOVA model with treatment and country as factors and the baseline score as the covariate. […]

[2] = Safety in phase 3 placebo-controlled study R092670-PSY-3007; type: in vivo, human; conditions: for average increase in body weight: placebo −0.2 kg; for Akathisia (EPS-related adverse event): placebo 4.9%; for mean change in BMI from baseline to end point: placebo −0.1
Experimental: Safety was monitored by the evaluation of adverse events, extrapyramidal symptom (EPS) rating scales (Abnormal Involuntary Movement Scale [AIMS], Barnes Akathisia Rating Scale [BARS], Simpson and Angus Rating Scale [SAS]) scores, clinical laboratory test results, vital signs measurements, electrocardiograms (ECGs), and physical examination findings. In addition, the tolerability of injections was assessed; the investigators evaluated injection sites and the subjects assessed injection pain.
The number and percentage of subjects with treatment-emergent adverse events were summarized. Adverse events of potential clinical interest were summarized separately, including events related to EPS or changes in serum glucose or prolactin levels.
Changes from baseline in clinical laboratory tests, vital sign measurements, ECGs, body weight, BMI, and EPS scale scores were summarized by treatment group. Prolactin levels were summarized by sex. Subjects with potentially abnormal values or changes in clinical laboratory tests, vital signs, orthostatic parameters, and ECG parameters were summarized based on predefined criteria. Frequency distributions were presented for the investigator's evaluation of the injection site, and descriptive statistics were presented for VAS scores corresponding to the subject's evaluation of injection pain.

CCCCCCCCCCCCCCCC(=O)OC1CCCn2c1nc(C)c(CCN1CCC(c3noc4cc(F)ccc34)CC1)c2=O (racemic) [paliperidone palmitate, (±)-3-[2-[4-(6-fluoro-1,2-benzisoxazol-3-yl)-1-piperidinyl]ethyl]-6,7,8,9-tetrahydro-2-methyl-4-oxo-4H-pyrido[1,2-α]pyrimidin-9-yl hexadecanoate]
earliest time point of statistically significant improvement over placebo in change in PANSS total score ([1]; 25 mg eq. and 150 mg eq. groups): Day 8 | PANSS Total Score change, Diff of LS Means (SE) versus placebo ([1]; 25 mg eq. group): −5.1 (2.01) | PANSS Total Score End point Mean (SD) ([1]; 25 mg eq. group (150 mg eq. Day 1, then 25 mg eq. Days 8, 36, 64)): 78.8 (19.88) | PANSS Total Score Change from Baseline Mean (SD) ([1]; 25 mg eq. group): −8.0 (19.90) | mean improvement in the PSP score from baseline to end point ([1]; 25 mg eq. group): 2.9 | subjects who achieved responder status (30% or larger decrease on PANSS total scores) ([1]; 25 mg eq. group): 33.5% | PANSS Total Score change, Diff of LS Means (SE) versus placebo ([1]; 100 mg eq. group): −8.7 (2.00) | PANSS Total Score End point Mean (SD) ([1]; 100 mg eq. group (150 mg eq. Day 1, then 100 mg eq. Days 8, 36, 64)): 74.6 (18.06) | PANSS Total Score Change from Baseline Mean (SD) ([1]; 100 mg eq. group): −11.6 (17.63) | mean improvement in the PSP score from baseline to end point ([1]; 100 mg eq. group): 6.1 | subjects who achieved responder status (30% or larger decrease on PANSS total scores) ([1]; 100 mg eq. group): 41.0% | PANSS Total Score change, Diff of LS Means (SE) versus placebo ([1]; 150 mg eq. group): −9.8 (2.00) | PANSS Total Score End point Mean (SD) ([1]; 150 mg eq. group (150 mg eq. Days 1, 8, 36, 64)): 75.2 (18.59) | PANSS Total Score Change from Baseline Mean (SD) ([1]; 150 mg eq. group): −13.2 (18.48) | mean improvement in the PSP score from baseline to end point ([1]; 150 mg eq. group): 8.3 | subjects who achieved responder status (30% or larger decrease on PANSS total scores) ([1]; 150 mg eq. group): 40.0% | time point as of which improvement over placebo in change in PANSS total score was statistically significant ([1]; all 3 dose groups): Day 22 | 1 or more serious TEAE, (%) ([2]; 25 mg eq. group (N = 160)): (9.4) % | Possibly related TEAE, (%) ([2]; 25 mg eq. group (N = 160)): (28.1) % | TEAE leading to permanent stop, (%) ([2]; 25 mg eq. group (N = 160)): (6.3) % | TEAE, (%) ([2]; 25 mg eq. group (N = 160)): (63.1) % | average increase in body weight ([2]; 25 mg eq. group, 13 weeks): 0.4 kg | Akathisia (EPS-related adverse event) ([2]; 25 mg eq. group): 1.3% | mean change in BMI from baseline to end point ([2]; 25 mg eq. group): 0.1 kg/m^2 | 1 or more serious TEAE, (%) ([2]; 100 mg eq. group (N = 165)): (13.3) % | Possibly related TEAE, (%) ([2]; 100 mg eq. group (N = 165)): (29.7) % | TEAE leading to permanent stop, (%) ([2]; 100 mg eq. group (N = 165)): (6.1) % | TEAE, (%) ([2]; 100 mg eq. group (N = 165)): (60.0) % | average increase in body weight ([2]; 100 mg eq. group, 13 weeks): 0.7 kg | Akathisia (EPS-related adverse event) ([2]; 100 mg eq. group): 4.8% | mean change in BMI from baseline to end point ([2]; 100 mg eq. group): 0.3 kg/m^2 | tolerability ([2]; 150 mg eq. deltoid then 25, 100 or 150 mg eq. Days 8, 36, 64, 13 weeks): generally well tolerated | 1 or more serious TEAE, (%) ([2]; 150 mg eq. group (N = 163)): 8.0% | Possibly related TEAE, (%) ([2]; 150 mg eq. group (N = 163)): 31.3% | TEAE leading to death, (%) ([2]; 150 mg eq. group (N = 163)): 0.6% | TEAE leading to permanent stop, (%) ([2]; 150 mg eq. group (N = 163)): 8.0% | TEAE, (%) ([2]; 150 mg eq. group (N = 163)): 63.2% | average increase in body weight ([2]; 150 mg eq. group, 13 weeks): 1.4 kg | Akathisia (EPS-related adverse event) ([2]; 150 mg eq. group): 5.5% | mean change in BMI from baseline to end point ([2]; 150 mg eq. group): 0.5 kg/m^2 | Local injection site tolerability ([2]; all dose groups): good | incidence of treatment-emergent EPS-related adverse events ([2]; all dose groups): low and comparable to placebo | ECG: clinically significant QTc prolongation ([2]; doses up to 150 mg eq.): did not demonstrate evidence of clinically significant QTc prolongation | subjects with maximum QTcLD value >480 ms or maximal change in QTcLD >60 ms ([2]; during the study): No subject | subjects with weight increase of at least 7% relative to baseline ([2]; highest dose (150 mg eq.), placebo 5%): 13% | prolactin levels ([2]; versus placebo, largest increase in the 150 mg eq. group): increases in prolactin levels were observed with greater frequency
